The values that follow come from patent publication US8716292B2, “Riminophenazines with 2-(heteroaryl)amino substituents and their anti-microbial activity” (priority 2010, dated 2014).

In brackets after ≈: the same amount, converted by molar mass.

The test system of the experiment is Mycobacterium tuberculosis H37Rv strains. As to the kind of experiment: In vitro assay for antimicrobial susceptibility (microplate Alamar blue MIC). The following applies: Mycobacterium tuberculosis, H37RV, in vitro, Mycobacterium tuberculosis H37Rv strains; read-out: MIC (μg/mL) against H37Rv. The class given is cell-based. For orientation: Resazurin is reduced to fluorescent resorufin, in cell work by metabolically active cells.
For `COC1CCC(/N=c2\cc3n(-c4ccc(C(F)(F)F)cc4)c4ccccc4nc-3cc2Nc2ccc(C)nc2)CC1` (stereo not drawn) [TBI-695, 5-(4-Trifluoromethylphenyl)-3-(4-methoxycyclohexyl)imino-2-(6-methyl-3-pyridyl)amino-3,5-dihydrophenazine], the MIC amounted to 0.016 µg/mL (≈ 0.0287 µM).

With `Cc1ccc(Nc2cc3nc4ccccc4n(-c4ccc(C(F)(F)F)cc4)c-3c/c2=N\C2CCOCC2)cn1` [TBI-696, 5-(4-Trifluoromethylphenyl)-3-(4-tetrahydropyranyl)imino-2-(6-methyl-3-pyridyl)amino-3,5-dihydrophenazine], the MIC was determined as 0.032 µg/mL (≈ 0.0604 µM). `Cc1ccc(Nc2cc3nc4ccccc4n(-c4ccc(C(F)(F)F)cc4)c-3c/c2=N\C2CCN(C)CC2)cn1` [TBI-697, 5-(4-Trifluoromethylphenyl)-3-(N-methyl-4-piperidyl)imino-2-(6-methyl-3-pyridyl)amino-3,5-dihydrophenazine]: the MIC came to 0.053 µg/mL (≈ 0.0977 µM). On to `Cc1ccc(Nc2cc3nc4ccccc4n(-c4ccc(C(F)(F)F)cc4)c-3c/c2=N\CCN2CCOCC2)cn1` [TBI-698, 5-(4-Trifluoromethylphenyl)-3-(2-morpholinoethyl)imino-2-(6-meth-3-pyridyl)amino-3,5-dihydrophenazine], for which the MIC amounted to 0.108 µg/mL (≈ 0.193 µM). With `COc1ncccc1Nc1cc2nc3ccccc3n(-c3ccc(C(F)(F)F)cc3)c-2c/c1=N\C(C)C` [TBI-699, 5-(4-Trifluoromethylphenyl)-3-(1-methylethyl)imino-2-(2-methoxy-3-pyridyl)amino-3,5-dihydrophenazine], the MIC came out at 0.029 µg/mL (≈ 0.0576 µM).

With `COc1ncccc1Nc1cc2nc3ccccc3n(-c3ccc(C(F)(F)F)cc3)c-2c/c1=N\C1CCC(OC)CC1` (stereo not drawn) [TBI-700, 5-(4-Trifluoromethylphenyl)-3-(4-methoxycyclohexyl)imino-2-(2-methoxy-3-pyridyl)amino-3,5-dihydrophenazine], the MIC is 0.016 µg/mL (≈ 0.0279 µM).

Consider `COc1ncccc1Nc1cc2nc3ccccc3n(-c3ccc(C(F)(F)F)cc3)c-2c/c1=N\C1CCOCC1` [TBI-701, 5-(4-Trifluoromethylphenyl)-3-(4-tetrahydropyranyl)imino-2-(2-methoxy-3-pyridyl)amino-3,5-dihydrophenazine], for which the MIC came out at 0.016 µg/mL (≈ 0.0293 µM). Turning to `COc1ncccc1Nc1cc2nc3ccccc3n(-c3ccc(C(F)(F)F)cc3)c-2c/c1=N\C1CCN(CC(C)C)CC1` [TBI-702], the MIC was found to be 0.016 µg/mL (≈ 0.0266 µM). The figure for `COc1ncccc1Nc1cc2nc3ccccc3n(-c3ccc(C(F)(F)F)cc3)c-2c/c1=N\C1CCN(C)CC1` [TBI-703, 5-(4-Trifluoromethylphenyl)-3-(N-methyl-4-piperidyl)imino-2-(2-methoxy-3-pyridyl)amino-3,5-dihydrophenazine] is 0.02 µg/mL (≈ 0.0358 µM); for `COc1ncccc1Nc1cc2nc3ccccc3n(-c3ccc(C(F)(F)F)cc3)c-2c/c1=N\CCN1CCOCC1` [TBI-704, 5-(4-Trifluoromethylphenyl)-3-(2-morpholinoethyl)imino-2-(2-methoxy-3-pyridyl)amino-3,5-dihydrophenazine] it is 0.061 µg/mL (≈ 0.106 µM).

For the molecule `Cc1ncccc1Nc1cc2nc3ccccc3n(-c3ccc(C(F)(F)F)cc3)c-2c/c1=N\C(C)C` [TBI-705, 5-(4-Trifluoromethylphenyl)-3-(1-methylethyl)imino-2-(2-methyl-3-pyridyl)amino-3,5-dihydrophenazine], the MIC was 0.014 µg/mL (≈ 0.0287 µM).

With `COC1CCC(N=c2cc3n(-c4ccc(C(F)(F)F)cc4)c4ccccc4nc-3cc2Nc2cccnc2C)CC1` (stereo not drawn) [TBI-706, 5-(4-Trifluoromethylphenyl)-3-(4-methoxycyclohexyl)imino-2-(2-methyl-3-pyridyl)amino-3,5-dihydrophenazine], the MIC turned out to be 0.011 µg/mL (≈ 0.0197 µM). The figure for `Cc1ncccc1Nc1cc2nc3ccccc3n(-c3ccc(C(F)(F)F)cc3)c-2c/c1=N\C1CCOCC1` [TBI-707, 5-(4-Trifluoromethylphenyl)-3-(4-tetrahydropyranyl)imino-2-(2-methyl-3-pyridyl)amino-3,5-dihydrophenazine] is 0.011 µg/mL (≈ 0.0208 µM); for `Cc1ncccc1Nc1cc2nc3ccccc3n(-c3ccc(C(F)(F)F)cc3)c-2c/c1=N\C1CCCCC1` [TBI-708, 5-(4-Trifluoromethylphenyl)-3-cyclohexylimino-2-(2-methyl-3-pyridyl)amino-3,5-dihydrophenazine] it is 0.028 µg/mL (≈ 0.0531 µM); for `Cc1ncccc1Nc1cc2nc3ccccc3n(-c3ccc(C(F)(F)F)cc3)c-2c/c1=N\C1CCC(O)CC1` (stereo not drawn) [TBI-709, 5-(4-Trifluoromethylphenyl)-3-(4-hydroxycyclohexyl)imino-2-(2-methyl-3-pyridyl)amino-3,5-dihydrophenazine] it is 0.108 µg/mL (≈ 0.199 µM).

For the molecule `COc1ncccc1Nc1cc2nc3ccccc3n(-c3ccc(C(F)(F)F)cc3)c-2c/c1=N\C1CCCCC1` [TBI-710, 5-(4-Trifluoromethylphenyl)-3-cyclohexylimino-2-(2-methoxy-3-pyridyl)amino-3,5-dihydrophenazine], the MIC was determined as 0.03 µg/mL (≈ 0.0552 µM).

In the case of `CC(=O)Nc1ccc(Nc2cc3nc4ccccc4n(-c4ccc(C(F)(F)F)cc4)c-3c/c2=N\C(C)C)cn1` [TBI-711, 5-(4-Trifluoromethylphenyl)-3-(1-methylethyl)imino-2-(6-acetamino-3-pyridyl)amino-3,5-dihydrophenazine], the MIC was 0.11 µg/mL (≈ 0.207 µM). Turning to `CC(=O)Nc1ccc(Nc2cc3nc4ccccc4n(-c4ccc(C(F)(F)F)cc4)c-3c/c2=N\C2CCOCC2)cn1` [TBI-712, 5-(4-Trifluoromethylphenyl)-3-(4-tetrahydropyranyl)imino-2-(6-acetamino-3-pyridyl)amino-3,5-dihydrophenazine], the MIC was 0.158 µg/mL (≈ 0.276 µM).

With `CC(=O)Nc1ccc(Nc2cc3nc4ccccc4n(-c4ccc(C(F)(F)F)cc4)c-3c/c2=N\C2CCCCC2)cn1` [TBI-713, 5-(4-Trifluoromethylphenyl)-3-cyclohexylimino-2-(6-acetamino-3-pyridyl)amino-3,5-dihydrophenazine], the MIC turned out to be 0.022 µg/mL (≈ 0.0386 µM). With `CC(=O)Nc1ccc(Nc2cc3nc4ccccc4n(-c4ccc(C(F)(F)F)cc4)c-3c/c2=N\C2CCC(O)CC2)cn1` (stereo not drawn) [TBI-714, 5-(4-Trifluoromethylphenyl)-3-(4-hydroxycyclohexyl)imino-2-(6-acetamino-3-pyridyl)amino-3,5-dihydrophenazine] the figure was 0.686 µg/mL (≈ 1.17 µM). For `COC1CCC(/N=c2\cc3n(-c4ccc(C(F)(F)F)cc4)c4ccccc4nc-3cc2Nc2ccc(NC(C)=O)nc2)CC1` (stereo not drawn) [TBI-715, 5-(4-Trifluoromethylphenyl)-3-(4-methoxycyclohexyl)imino-2-(6-acetamino-3-pyridyl)amino-3,5-dihydrophenazine], the MIC was 0.06 µg/mL (≈ 0.0999 µM). With `Cc1ccc(Nc2cc3nc4ccccc4n(-c4ccc(C(F)(F)F)cc4)c-3c/c2=N\C2CC2)cn1` [TBI-716, 5-(4-Trifluoromethylphenyl)-3-cyclopropylimino-2-(6-methyl-3-pyridyl)amino-3,5-dihydrophenazine] the figure was 0.041 µg/mL (≈ 0.0844 µM); with `Cc1ccc(Nc2cc3nc4ccccc4n(-c4ccc(C(F)(F)F)cc4)c-3c/c2=N\C2CCCCC2)cn1` [TBI-717, 5-(4-Trifluoromethylphenyl)-3-cyclohexylimino-2-(6-methyl-3-pyridyl)amino-3,5-dihydrophenazine], 0.015 µg/mL (≈ 0.0284 µM). The figure for `COc1ncccc1Nc1cc2nc3ccccc3n(-c3ccc(C(F)(F)F)cc3)c-2c/c1=N\C1CC1` [TBI-718, 5-(4-Trifluoromethylphenyl)-3-cyclopropylimino-2-(2-methoxy-3-pyridyl)amino-3,5-dihydrophenazine] is 0.015 µg/mL (≈ 0.0299 µM); for `COc1ncccc1Nc1cc2nc3ccccc3n(-c3ccc(C(F)(F)F)cc3)c-2c/c1=N\C1CCC(O)CC1` (stereo not drawn) [TBI-719, 5-(4-Trifluoromethylphenyl)-3-(4-hydroxycyclohexyl)imino-2-(2-methoxy-3-pyridyl)amino-3,5-dihydrophenazine] it is 0.204 µg/mL (≈ 0.365 µM); for `CC(C)/N=c1\cc2n(-c3ccccc3C(F)(F)F)c3ccccc3nc-2cc1Nc1cccnc1` [TBI-720, 5-(2-Trifluoromethylphenyl)-3-(1-methylethyl)imino-2-(3-pyridyl)amino-3,5-dihydrophenazine] it is 0.214 µg/mL (≈ 0.452 µM). With `Cc1cncc(Nc2cc3nc4ccccc4n(-c4ccc(C(F)(F)F)cc4)c-3c/c2=N\C(C)C)c1` [TBI-721, 5-(4-Trifluoromethylphenyl)-3-(1-methylethyl)imino-2-(5-methyl-3-pyridyl)amino-3,5-dihydrophenazine] the figure was 0.082 µg/mL (≈ 0.168 µM).

For `Cc1cncc(Nc2cc3nc4ccccc4n(-c4ccc(C(F)(F)F)cc4)c-3c/c2=N\C2CCCCC2)c1` [TBI-722, 5-(4-Trifluoromethylphenyl)-3-cyclohexylimino-2-(5-methyl-3-pyridyl)amino-3,5-dihydrophenazine], the MIC worked out at 0.031 µg/mL (≈ 0.0588 µM). The figure for `Cc1cncc(Nc2cc3nc4ccccc4n(-c4ccc(C(F)(F)F)cc4)c-3c/c2=N\C2CCOCC2)c1` [TBI-723, 5-(4-Trifluoromethylphenyl)-3-(4-tetrahydropyranyl)imino-2-(5-methyl-3-pyridyl)amino-3,5-dihydrophenazine] is 0.041 µg/mL (≈ 0.0774 µM); for `COC1CCC(/N=c2\cc3n(-c4ccc(C(F)(F)F)cc4)c4ccccc4nc-3cc2Nc2cncc(C)c2)CC1` (stereo not drawn) [TBI-724, 5-(4-Trifluoromethylphenyl)-3-(4-methoxycyclohexyl)imino-2-(5-meth-3-pyridyl)amino-3,5-dihydrophenazine] it is 0.03 µg/mL (≈ 0.0538 µM). The figure for `Cc1cncc(Nc2cc3nc4ccccc4n(-c4ccc(C(F)(F)F)cc4)c-3c/c2=N\C2CC2)c1` [TBI-725, 5-(4-Trifluoromethylphenyl)-3-cyclopropylimino-2-(5-methyl-3-pyridyl)amino-3,5-dihydrophenazine] is 0.031 µg/mL (≈ 0.0638 µM); for `Cc1cncc(Nc2cc3nc4ccccc4n(-c4ccc(C(F)(F)F)cc4)c-3c/c2=N\C2CCC2)c1` [TBI-726, 5-(4-Trifluoromethylphenyl)-3-cyclobutylimino-2-(5-methyl-3-pyridyl)amino-3,5-dihydrophenazine] it is 0.058 µg/mL (≈ 0.116 µM). The figure for `Cc1cncc(Nc2cc3nc4ccccc4n(-c4ccc(C(F)(F)F)cc4)c-3c/c2=N\C2CCC(O)CC2)c1` (stereo not drawn) [TBI-727, 5-(4-Trifluoromethylphenyl)-3-(4-hydroxycyclohexyl)imino-2-(5-methyl-3-pyridyl)amino-3,5-dihydrophenazine] is 0.405 µg/mL (≈ 0.745 µM).
